From US20250213527A1, “FORMULATIONS OF PSILOCYBIN ANALOGS AND METHODS OF USE” (priority 2021, published 2025)
“Also recorded” adds a separate entry of the source.

Tests used:
[1] = Stability on standing of amorphous form from DSC melt/crash cooling (XRPD); type: physicochemical; settings: amorphous free base from melt/crash cooling (>185 °C/30 °C)
[2] = Plasma pharmacokinetics and bioavailability in rats, oral gavage and intravenous (bolus); settings: rat plasma, Group 1, IV, psilocin + psilocin-d10 1 + 1 mg/kg; label = analyte; IAD = immediately after dosing
[3] = Psilocin-d10 pharmacokinetics in female beagle dogs, oral gavage and intravenous (bolus); settings: for AUC(0-inf) / AUC(0-t) / C0 / clearance / Cmax / Tmax / Vd / half-life / bioavailability: female, beagle, dog, plasma; for AUC(0-inf): AUC0-inf; for C0: C0, female dog plasma
[4] = Pharmacokinetics in male beagle dogs after oral administration by powder in capsule (PIC) or orally disintegrating tablet (ODT); settings: dog, plasma, 5 mg
[5] = female dog plasma, single IV bolus 0.20 mg/kg, Mean (N=3)
[6] = female dog plasma, single IV bolus 0.20 mg/kg, Median (N=3)
[7] = female dog plasma, single IV bolus 0.20 mg/kg, animal 60F
[8] = female dog plasma, single IV bolus 0.20 mg/kg, animal 61F
[9] = female dog plasma, single IV bolus 0.20 mg/kg, animal 723F
[10] = female dog plasma, single oral gavage 1.00 mg/kg, Mean (N=3)
[11] = female dog plasma, single oral gavage 1.00 mg/kg, Median (N=3)
[12] = female dog plasma, single oral gavage 1.00 mg/kg, animal 60F
[13] = female dog plasma, single oral gavage 1.00 mg/kg, animal 61F
[14] = female dog plasma, single oral gavage 1.00 mg/kg, animal 723F
[15] = iv, 0.2 mg/kg, female dog plasma, single IV bolus 0.20 mg/kg, Mean (N=3)
[16] = iv, 0.2 mg/kg, female dog plasma, single IV bolus 0.20 mg/kg, animal 61F
[17] = po, 1 mg/kg, female dog plasma, single oral gavage 1.00 mg/kg, Mean (N=3)
[18] = po, 1 mg/kg, female dog plasma, single oral gavage 1.00 mg/kg, Median (N=3)
[19] = po, 1 mg/kg, female dog plasma, single oral gavage 1.00 mg/kg, animal 60F
[20] = po, 1 mg/kg, female dog plasma, single oral gavage 1.00 mg/kg, animal 61F
[21] = po, 1 mg/kg, female dog plasma, single oral gavage 1.00 mg/kg, animal 723F

[2H]C([2H])([2H])N(C([2H])([2H])[2H])C([2H])([2H])C([2H])([2H])c1c[nH]c2cccc(O)c12 [Compound I-3, 3-(2-(bis(methyl-d3)amino)ethyl-1,1,2,2-d4)-1H-indol-4-ol]
stability of amorphous form on standing [1]: crystallized overnight to crystal polymorph pattern 2; also recorded: unstable upon standing | Tmax [2]: IAD | time of last detectable plasma level ([3]; dogs, oral administration): 8 h | time of peak plasma levels ([3]; dogs, oral administration): 0.5 h | DN AUC0-inf [3, 5]: 448 (h*ng/mL)/(mg/kg) | DN Cmax [3, 5]: 229 (ng/mL)/(mg/kg) | DN AUC0-inf [3, 6]: 479 (h*ng/mL)/(mg/kg) | DN Cmax [3, 6]: 230 (ng/mL)/(mg/kg) | DN AUC0-inf [3, 7]: 366 (h*ng/mL)/(mg/kg) | DN Cmax [3, 7]: 230 (ng/mL)/(mg/kg) | DN AUC0-inf [3, 8]: 479 (h*ng/mL)/(mg/kg) | DN Cmax [3, 8]: 220 (ng/mL)/(mg/kg) | DN AUC0-inf [3, 9]: 500 (h*ng/mL)/(mg/kg) | DN Cmax [3, 9]: 239 (ng/mL)/(mg/kg) | DN AUC0-inf [3, 10]: 405 (h*ng/mL)/(mg/kg) | DN Cmax [3, 10]: 146 (ng/mL)/(mg/kg) | DN AUC0-inf [3, 11]: 414 (h*ng/mL)/(mg/kg) | DN Cmax [3, 11]: 132 (ng/mL)/(mg/kg) | DN AUC0-inf [3, 12]: 374 (h*ng/mL)/(mg/kg) | DN Cmax [3, 12]: 132 (ng/mL)/(mg/kg) | DN AUC0-inf [3, 13]: 414 (h*ng/mL)/(mg/kg) | DN Cmax [3, 13]: 179 (ng/mL)/(mg/kg) | DN AUC0-inf [3, 14]: 426 (h*ng/mL)/(mg/kg) | DN Cmax [3, 14]: 126 (ng/mL)/(mg/kg) | AUC(0-inf) [3, 15]: 89.6 ng·h/mL | AUC(0-inf) ([3]; iv, 0.2 mg/kg, female dog plasma, single IV bolus 0.20 mg/kg, Median (N=3)): 95.8 ng·h/mL | AUC(0-inf) ([3]; iv, 0.2 mg/kg, female dog plasma, single IV bolus 0.20 mg/kg, animal 60F): 73.3 ng·h/mL | AUC(0-inf) [3, 16]: 95.8 ng·h/mL | AUC(0-inf) ([3]; iv, 0.2 mg/kg, female dog plasma, single IV bolus 0.20 mg/kg, animal 723F): 99.9 ng·h/mL | AUC(0-t) ([3]; iv, 0.2 mg/kg, AUC0-t, female dog plasma, single IV bolus 0.20 mg/kg, Mean (N=3)): 77.8 ng·h/mL | AUC(0-t) ([3]; iv, 0.2 mg/kg, AUC0-t, female dog plasma, single IV bolus 0.20 mg/kg, Median (N=3)): 80.7 ng·h/mL | AUC(0-t) ([3]; iv, 0.2 mg/kg, AUC0-t, female dog plasma, single IV bolus 0.20 mg/kg, animal 60F): 67 ng·h/mL | AUC(0-t) ([3]; iv, 0.2 mg/kg, AUC0-t, female dog plasma, single IV bolus 0.20 mg/kg, animal 61F): 80.7 ng·h/mL | AUC(0-t) ([3]; iv, 0.2 mg/kg, AUC0-t, female dog plasma, single IV bolus 0.20 mg/kg, animal 723F): 85.8 ng·h/mL | C0 ([3]; iv, 0.2 mg/kg, single IV bolus 0.20 mg/kg, Mean (N=3)): 57.3 ng/mL | C0 ([3]; iv, 0.2 mg/kg, single IV bolus 0.20 mg/kg, Median (N=3)): 62 ng/mL | C0 ([3]; iv, 0.2 mg/kg, single IV bolus 0.20 mg/kg, animal 60F): 69.5 ng/mL | C0 ([3]; iv, 0.2 mg/kg, single IV bolus 0.20 mg/kg, animal 61F): 40.5 ng/mL | C0 ([3]; iv, 0.2 mg/kg, single IV bolus 0.20 mg/kg, animal 723F): 62 ng/mL | clearance ([3]; iv, 0.2 mg/kg, CL, female dog plasma, single IV bolus 0.20 mg/kg, Mean (N=3)): 37.8 mL/min/kg | clearance ([3]; iv, 0.2 mg/kg, CL, female dog plasma, single IV bolus 0.20 mg/kg, animal 60F): 45.5 mL/min/kg | clearance ([3]; iv, 0.2 mg/kg, CL, female dog plasma, single IV bolus 0.20 mg/kg, animal 723F): 33.3 mL/min/kg | clearance ([3]; iv, 0.2 mg/kg, Clearance (CL), dogs): 37.8 mL/min/kg | Cmax ([3]; iv, 0.2 mg/kg, Cmax, female dog plasma, single IV bolus 0.20 mg/kg, Mean (N=3)): 45.8 ng/mL | Cmax ([3]; iv, 0.2 mg/kg, Cmax, female dog plasma, single IV bolus 0.20 mg/kg, Median (N=3)): 45.9 ng/mL | Cmax ([3]; iv, 0.2 mg/kg, Cmax, female dog plasma, single IV bolus 0.20 mg/kg, animal 60F): 45.9 ng/mL | Cmax ([3]; iv, 0.2 mg/kg, Cmax, female dog plasma, single IV bolus 0.20 mg/kg, animal 61F): 43.9 ng/mL | Cmax ([3]; iv, 0.2 mg/kg, Cmax, female dog plasma, single IV bolus 0.20 mg/kg, animal 723F): 47.7 ng/mL | Tmax [3, 15]: 0.333 h | Tmax [3, 16]: 0.5 h | Vd ([3]; iv, 0.2 mg/kg, Vss, female dog plasma, single IV bolus 0.20 mg/kg, Mean (N=3)): 4.01 L/kg | Vd ([3]; iv, 0.2 mg/kg, Vss, female dog plasma, single IV bolus 0.20 mg/kg, Median (N=3)): 3.96 L/kg | Vd ([3]; iv, 0.2 mg/kg, Vss, female dog plasma, single IV bolus 0.20 mg/kg, animal 60F): 3.96 L/kg | Vd ([3]; iv, 0.2 mg/kg, Vss, female dog plasma, single IV bolus 0.20 mg/kg, animal 61F): 4.28 L/kg | Vd ([3]; iv, 0.2 mg/kg, Vss, female dog plasma, single IV bolus 0.20 mg/kg, animal 723F): 3.79 L/kg | half-life ([3]; iv, 0.2 mg/kg, elimination half-life, dogs): 1.35 h | AUC(0-t) ([3]; iv, 0.2 mg/kg, mean AUC0-t, female dog plasma, single intravenous (bolus) dose): 77.8 ng·h/mL | Cmax ([3]; iv, 0.2 mg/kg, mean Cmax, female dog plasma, single intravenous (bolus) dose): 45.8 ng/mL | half-life ([3]; iv, 0.2 mg/kg, t1/2, female dog plasma, single IV bolus 0.20 mg/kg, Mean (N=3)): 1.37 h | half-life ([3]; iv, 0.2 mg/kg, t1/2, female dog plasma, single IV bolus 0.20 mg/kg, Median (N=3)): 1.41 h | half-life ([3]; iv, 0.2 mg/kg, t1/2, female dog plasma, single IV bolus 0.20 mg/kg, animal 60F): 1.16 h | half-life ([3]; iv, 0.2 mg/kg, t1/2, female dog plasma, single IV bolus 0.20 mg/kg, animal 61F): 1.55 h | half-life ([3]; iv, 0.2 mg/kg, t1/2, female dog plasma, single IV bolus 0.20 mg/kg, animal 723F): 1.41 h | Vd ([3]; iv, 0.2 mg/kg, volume of distribution at steady state (VSS), dogs, intravenous): 4.01 L/kg | AUC(0-inf) [3, 17]: 405 ng·h/mL | AUC(0-inf) [3, 18]: 414 ng·h/mL | AUC(0-inf) [3, 19]: 374 ng·h/mL | AUC(0-inf) [3, 20]: 414 ng·h/mL | AUC(0-inf) [3, 21]: 426 ng·h/mL | AUC(0-t) ([3]; po, 1 mg/kg, AUC0-t, female dog plasma, single oral gavage 1.00 mg/kg, Mean (N=3)): 387 ng·h/mL | AUC(0-t) ([3]; po, 1 mg/kg, AUC0-t, female dog plasma, single oral gavage 1.00 mg/kg, Median (N=3)): 399 ng·h/mL | AUC(0-t) ([3]; po, 1 mg/kg, AUC0-t, female dog plasma, single oral gavage 1.00 mg/kg, animal 61F): 399 ng·h/mL | AUC(0-t) ([3]; po, 1 mg/kg, AUC0-t, female dog plasma, single oral gavage 1.00 mg/kg, animal 723F): 404 ng·h/mL | Cmax ([3]; po, 1 mg/kg, Cmax, female dog plasma, single oral gavage 1.00 mg/kg, Mean (N=3)): 146 ng/mL | Cmax ([3]; po, 1 mg/kg, Cmax, female dog plasma, single oral gavage 1.00 mg/kg, Median (N=3)): 132 ng/mL | Cmax ([3]; po, 1 mg/kg, Cmax, female dog plasma, single oral gavage 1.00 mg/kg, animal 60F): 132 ng/mL | Cmax ([3]; po, 1 mg/kg, Cmax, female dog plasma, single oral gavage 1.00 mg/kg, animal 61F): 179 ng/mL | Cmax ([3]; po, 1 mg/kg, Cmax, female dog plasma, single oral gavage 1.00 mg/kg, animal 723F): 126 ng/mL | bioavailability ([3]; po, 1 mg/kg, F (Bioavailability), female dog plasma, single oral gavage 1.00 mg/kg, Mean (N=3)): 91.3% | bioavailability ([3]; po, 1 mg/kg, F (Bioavailability), female dog plasma, single oral gavage 1.00 mg/kg, Median (N=3)): 186% | bioavailability ([3]; po, 1 mg/kg, F (Bioavailability), female dog plasma, single oral gavage 1.00 mg/kg, animal 60F): 102% | bioavailability ([3]; po, 1 mg/kg, F (Bioavailability), female dog plasma, single oral gavage 1.00 mg/kg, animal 61F): 86.5% | bioavailability ([3]; po, 1 mg/kg, F (Bioavailability), female dog plasma, single oral gavage 1.00 mg/kg, animal 723F): 85.2% | Tmax [3, 17]: 0.5 h | Tmax [3, 18]: 0.5 h | Tmax [3, 19]: 0.5 h | Tmax [3, 20]: 0.5 h | Tmax [3, 21]: 0.5 h | half-life ([3]; po, 1 mg/kg, elimination half-life, dogs): 1.77 h | AUC(0-t) ([3]; po, 1 mg/kg, mean AUC0-t, female dog plasma, single oral (gavage) dose): 387 ng·h/mL | Cmax ([3]; po, 1 mg/kg, mean Cmax, female dog plasma, single oral (gavage) dose): 146 ng/mL | bioavailability ([3]; po, 1 mg/kg, mean oral bioavailability (%F), dogs, oral 1 mg/kg): 91.3% | half-life ([3]; po, 1 mg/kg, t1/2, female dog plasma, single oral gavage 1.00 mg/kg, Mean (N=3)): 1.77 h | half-life ([3]; po, 1 mg/kg, t1/2, female dog plasma, single oral gavage 1.00 mg/kg, Median (N=3)): 1.8 h | half-life ([3]; po, 1 mg/kg, t1/2, female dog plasma, single oral gavage 1.00 mg/kg, animal 60F): 1.82 h | half-life ([3]; po, 1 mg/kg, t1/2, female dog plasma, single oral gavage 1.00 mg/kg, animal 61F): 1.69 h | half-life ([3]; po, 1 mg/kg, t1/2, female dog plasma, single oral gavage 1.00 mg/kg, animal 723F): 1.8 h | Tmax [4]: 0.5 h | Tmax ([4]; oral): 1 h
